Reference: patent US11166914B2, “Tumor therapeutic agent and kit containing gemcitabine liposome composition” (FUJIFILM Corporation, priority 2015, dated 2021)
Structures can show the parent of a compound that is named as a salt.

Experiments:
[1] = test system: malignant tumors; conditions: gemcitabine single agent, cancer patients; N Engl J Med 2013, 369 (18), 1691-1703; cited from earlier work
[2] = test system: Capan-1 cells of a human pancreatic cancer cell strain; test: Pharmacological test on Capan-1 subcutaneous transplantation tumor-bearing mouse model; assay type: in vivo, female nude mouse; conditions: single agent, no Abx; Gem 240 mg/kg or composition A 3 mg/kg as gemcitabine; tail vein once a week for 3 weeks from day 17
Method: The volume of a tumor was calculated using the following equation by measuring the major axis (a) and the minor axis (b) of the tumor with calipers. (a×b^2)×0.5 (where “a” is the major axis and “b” is the minor axis.) Equation: […]
Gemcitabine (hereinafter, also referred to as Gem), abraxane (hereinafter, also referred to as Abx), and a gemcitabine-contained liposome composition (hereinafter, also referred to as a composition A) were used as test substances.
Gem was prepared by dissolving gemcitabine hydrochloride (manufactured by TEVA) in physiological saline. Abx obtained by dissolving abraxane (manufactured by Celgene) in physiological saline was used. A gemcitabine-contained liposome composition prepared in Reference Example 1 was used.
1×10^7 Capan-1 cells of a human pancreatic cancer cell strain were transplanted subcutaneously into the flank of a female nude mouse to form subcutaneous tumors. The effect of controlling the subcutaneous tumor in combination administration of Abx and the composition A was evaluated using the volume of the tumor as an index. As test substances, a sucrose solution was used as a group 1, Gem was used as a group 2, a composition A was used as a group 3, Abx and Gem were respectively used as a group 4 and a group 5, and Abx and a composition A were respectively used as a group 6 and a group 7. Groups 1 to 5 are comparative examples and groups 6 and 7 are examples. All test substances were administered to the tail vein once a week from day 17 after transplantation for a total of 3 weeks.
Tukey's multiple comparisons test was performed as a statistical analysis, and a P value less than 5% among the groups was determined to indicate that there is a statistically significant difference. Graphpad Prism version 5.03 was used for data processing.

[3] = gemcitabine single agent; background statement; cited from earlier work

Nc1ccn([C@@H]2O[C@H](CO)[C@@H](O)C2(F)F)c(=O)n1 [Gem, gemcitabine hydrochloride]
Efficiency of single agent to a tumor [1]: 10% | Median survival period [1]: 6.7 months | Number of days until tumor volume average value of 2,000 mm^3 is reached [2]: 52 days | Tumor regression rate from start of medication [2]: N.R. | Tumor volume average value on day 38 after transplantation [2]: 1397^a) mm^3 | Retention time in blood [3]: 20 min
